In US9415030B2 (priority 2008, dated 2016):
Read-outs that look alike come from different tables or passages of the source.

Key:
[1] = test system: OCD; experiment: Earlier treatments of Subject 1 (SSRIs, atypical neuroleptics, IVIG); type: in vivo, human; settings: Subject 1, before glycine treatment
[2] = test system: lupus mice; settings: fed a lot of arginine in their diet; cited from earlier work
[3] = clinical; settings: human, in vivo
Text: Hyperammonemia is seen in several abnormal conditions, e.g. inborn errors of metabolism that affect the urea cycle, small bowel syndrome, and others.

[4] = test system: human cerebellar granule neurons; settings: cultured cerebellar granule neurons; cited from earlier work
[5] = test system: cerebellar granule neurons; settings: cultured cerebellar granule neurons; cited from earlier work
[6] = target: NMDA co-agonist site (Homo sapiens, UniProt Q05586); settings: 0.8 g/kg body weight/day; cited from earlier work
[7] = test system: OCD, BDD, and ADHD symptoms
Text: Although individual symptoms have varied in intensity over time, the basic spectrum of signs and symptoms appears to have been unchanged over 15 years.
Participation in family gatherings has increased.

[8] = test system: cognition
Text: Available evidence consists of records for formal cognitive testing, school records from pre-kindergarten through college (in progress), SAT scores, including scores on practice tests in an SAT preparation course, and diary-recorded observations made in parental tutoring sessions occurring from first grade through college.
Preparation for the SAT test included a test preparation course that involved practice tests that simulated actual test conditions. […] It should be noted that both official and unofficial SAT tests were taken in the standard time intervals.
No parental tutoring was given and it should be noted that Subject 1 received no special accommodations in this course.
In the course of these explanations, the importance of these facts was strongly emphasized. One and a half months after the course was over, Subject 1 was again queried by their parent on this topic.

[9] = 1 year after initiation of glycine treatment

Fc1ccc([C@@H]2CCNC[C@H]2COc2ccc3c(c2)OCO3)cc1 [Paxil]
response of OCD to treatment [1]: non-responder

N=C(N)NCCC[C@H](N)C(=O)O [arginine, L-arginine]
survival [2]: die more quickly
concentration at 3 h [3]: 98 µM
plasma ammonia concentration [3]: ~94 µM

CC[C@H]1OC(=O)[C@H](C)[C@@H](O[C@H]2C[C@@](C)(OC)[C@@H](O)[C@H](C)O2)[C@H](C)[C@@H](O[C@@H]2O[C@H](C)C[C@H](N(C)C)[C@H]2O)[C@](C)(OC)C[C@@H](C)C(=O)[C@H](C)[C@@H](O)[C@]1(C)O [clarithromycin]
kainate-mediated excitotoxicity [4]: not kainate-mediated excitotoxicity
NMDA receptor mediated excitotoxic cell death [5]: inhibited NMDA receptor mediated excitotoxic cell death

glycine
NMDA activity [6]: moderately enhanced NMDA activity
intolerance of mirrors [7, 9]: reduced intolerance of mirrors
perseverative behavior during taxi rides [7, 9]: much reduced
decline on glycine cessation ([7]; 6 week cessation with no infection): little or no decline
BDD signs and symptoms after glycine cessation ([7]; 9 month cessation begun May 2006): clear increase in BDD signs and symptoms
line crossing obsession ([7]; Subject 1, during glycine treatment): no signs of the line crossing obsession
time to first behavioral improvement after initiation of glycine treatment ([7]; Subject 1, parent's report): about three
recovery of gains after glycine resumption ([7]; over three months after resumption): previous gains were largely recovered
BDD signs and symptoms ([7]; periods of sustained glycine treatment): continued to improve
college algebra test scores ([8]; 10 and 14 weeks after glycine cessation): low 90% range
college algebra test scores ([8]; 21 and 26 weeks after glycine cessation): low 80% range
improvement of SAT scores during Kaplan preparation course ([8]; course begun six months after starting glycine): approximately 250 points
cognition ([8]; high-dose glycine treatment): cognition improved
memory consolidation and/or retrieval ([8]; nine months after glycine cessation): return of difficulties in memory consolidation and/or retrieval
SAT math score, official test ([8]; sustained glycine treatment): 520
SAT math score, practice test 1 ([8]; sustained glycine treatment): 390
SAT math score, practice test 2 ([8]; sustained glycine treatment): 460
SAT math score, practice test 3 ([8]; sustained glycine treatment): 490
SAT verbal score, official test ([8]; sustained glycine treatment): 660
SAT verbal score, practice test 1 ([8]; sustained glycine treatment): 540
SAT verbal score, practice test 2 ([8]; sustained glycine treatment): 540
SAT verbal score, practice test 3 ([8]; sustained glycine treatment): 600
percentile of official SAT verbal score ([8]; sustained glycine treatment): 90 percentile
